From patent publication US20220048878A1, “IMPROVEMENT IN OR RELATING TO ORGANIC COMPOUNDS” (GIVAUDAN SA, priority 2018, published 2022)
Read-outs that look alike come from different tables or passages of the source.

How the values were obtained:
[1] = cited from earlier work
male rats [2] = settings: cited from earlier work
male rats [3] = experiment: Repeated dose 28-day oral toxicity study in rats (OECD Guideline 407), reproductive organs and sperm analysis; format: in vivo; settings: for Motile Sperms (%) / Sperm cells with normal morphology (count/total) / Sperm cells with normal morphology (percent) / Number of sperms per gram: male rats
Description: An isomeric mixture obtained according to Example 1 b was tested in a repeated dose 28-day oral toxicity study in rats according to OECD Guideline 407 (OECD, Paris, October 2008). Groups of animals (n=5) were fed with a diet containing the test item to obtain a daily ingested dose of 100 mg/kg body weight/day, 300 mg/kg body weight/day and 1000 mg/kg body weight/day. The animals were treated for 28 days. After this period, they were sacrificed and their organs were examined by pathological examination for gross lesions, weight changes and further investigated by histopathology. The seminal fluid from the epididymis was sampled and analyzed microscopically for number, morphology and motility of sperms.
All treated groups were compared to the control group with a Dunnett-test based on pooled variance and a Steel-test.

[4] = male rats, 1000 mg/kg body weight per day
[5] = male rats, 300 or 1000 mg/kg body weight per day
[6] = rats, 100, 300 and 1000 mg/kg body weight/day, 28 days

SMILES: CC(C)=CC1CC(C)CCO1 (racemic) [Rose Oxide, 4-methyl-2-(2-methylprop-1-en-1-yl)tetrahydro-2H-pyran]
- Time to evaporate on a smelling strip ([1]; smelling strip): ≤ 30 min
- Effects on sperm formation (male rats [2]; 28 days, OECD guideline 407, middle (300 mg/kg bw/d) and high (1000 mg/kg bw/d) dose): clear-cut effects on sperm formation
- Classification (REACH/ECHA) (male rats [2]; classification provided by companies to ECHA): CMR2
- Severity of immature ducts in distal corpus and/or cauda epididymis (histopathology) (male rats [2]; male rats, 300 mg/kg body weight per day): minimal to slight
- Severity of immature ducts in distal corpus and/or cauda epididymis (histopathology) (male rats [2]; [4]): slight to severe
- Weight increase of the epididymis, absolute (male rats [2]; [4]): 33%
- Weight increase of the epididymis, relative (male rats [2]; [4]): 26%
- Sperm function and morphology in the cauda epididymis (male rats [2]; [5]): adversely affected
- Sperm numbers (male rats [2]; [5]): significantly reduced

SMILES: CCC(C)=C[C@@H]1C[C@H](C)CCO1 (relative stereo) [rel-(2S,4R)-4-methyl-2-(2-methylbut-1-en-1-yl)tetrahydro-2H-pyran]
- Suppression of sperm formation (male rats [3]; rats): does not suppress sperm formation

SMILES: CC1CCOC(c2ccccc2)C1 (stereo not drawn) [Doremox®, 4-methyl-2-phenyltetrahydro-2H-pyran]
- Lastingness compared to Rose Oxide ([1]; background statement): too long-lasting compared to Rose Oxide

SMILES: CCC(C)=CC1CC(C)CCO1 (stereo not drawn) [Example 1b, 4-methyl-2-(2-methylbut-1-en-1-yl)tetrahydro-2H-pyran]
- Effect on key parameters of male fertility (male rats [3]; 28 days, up to 1000 mg/kg bw/d): no effect
- Difference in sperm parameters between control group and treated groups (male rats [3]; Dunnett-test and Steel-test, p=0.05 significance level): No significant differences
- Motile Sperms (%) (male rats [3]; 100 mg/kg bw/d, 28 days): 63 ± 12%
- Sperm cells with normal morphology (count/total) (male rats [3]; 100 mg/kg bw/d, 28 days): 156/246
- Sperm cells with normal morphology (percent) (male rats [3]; 100 mg/kg bw/d, 28 days): (63.4%)
- Motile Sperms (%) (male rats [3]; 300 mg/kg bw/d, 28 days): 47 ± 13%
- Sperm cells with normal morphology (count/total) (male rats [3]; 300 mg/kg bw/d, 28 days): 170/210
- Sperm cells with normal morphology (percent) (male rats [3]; 300 mg/kg bw/d, 28 days): (81.0%)
- Motile Sperms (%) (male rats [3]; 1000 mg/kg bw/d, 28 days): 53 ± 23%
- Sperm cells with normal morphology (count/total) (male rats [3]; 1000 mg/kg bw/d, 28 days): 158/197
- Sperm cells with normal morphology (percent) (male rats [3]; 1000 mg/kg bw/d, 28 days): (80.2%)
- Number of sperms per gram (male rats [3]; n = 5, 100 mg/kg bw/d in diet, 28 days): 3.9 ± 0.9 × 10^8
- Number of sperms per gram (male rats [3]; n = 5, 300 mg/kg bw/d in diet, 28 days): 4.0 ± 0.9 × 10^8
- Number of sperms per gram (male rats [3]; n = 5, 1000 mg/kg bw/d in diet, 28 days): 4.0 ± 1.9 × 10^8
- Macroscopic changes to reproductive organs (male rats [3]; [6]): no macroscopic changes
- Weight of the reproductive organs versus control group (male rats [3]; [6]): not different from the control group
